# Literature values, collected in patent US20130338126A1, “Ophthalmic Suspension for Ocular Use” (Allergan, Inc., priority 2008, published 2013).
# How the values were obtained:
# [1] = system: Corynebacterium propinquum, Staphylococcus aureus, Staphylococcus epidermidis, Streptococcus mitis, Streptococcus pneumoniae, Haemophilus influenzae; settings: both in vitro and clinically, in conjunctival infections
# [2] = system: methicillin resistant Staphylococcus aureus, and Staphylococcus epidermidis; settings: in vitro, gram-positive microorganisms
# [3] = system: Streptococcus epidermidis
# [4] = system: gram-negative microorganisms; settings: many gram-negative microorganisms
# [5] = system: Haemophylus influenzae clinical isolated cases; settings: clinical isolates
# bacteria = settings: in vitro
# [6] = system: Staphylococcus aureus and Staphylococcus epidermidis
# [7] = system: topoisomerase II or gyrase mutations
# [8] = ophthalmic solution 0.3% or 0.5% w/v, 2 drops up to 8 times a day; below inferior limit of quantification, all individuals
# [9] = topical; p<0.005
# bacterial conjunctivitis [10] = settings: 0.3% ophthalmic solution, treated five days
# bacterial conjunctivitis [11] = settings: day 6 of treatment
# [12] = system: bacterial flora in the eye
# [13] = system: 379 isolated microorganisms; settings: first day of treatment
# [14] = system: Streptococcus pneumoniae isolates; settings: all study visits
# [15] = system: gram-negative bacteria, including all Haemophilus influenzae isolates; settings: all study visits
# [16] = human, in vivo
smiles,measurement,setting,value
COc1c(N2CCNC(C)C2)c(F)cc2c(=O)c(C(=O)O)cn(C3CC3)c12 (centres unmarked) [gatifloxacin],activity against most strains,[1],shown to be active
same,"potency compared with ciprofloxacin, ofloxacin, levofloxacin and moxifloxacin",[2],more powerful than other quinolones
same,effectiveness relative to ofloxacin,[3],eight times more effective
same,activity compared to ofloxacin,[4],increased activity compared to ofloxacin
same,effectiveness relative to ofloxacin,[5],two times more effective
same,effectiveness relative to ciprofloxacin,mycobacterium,four times more effective/active
same,action when combined with amicacin and claritromicin,Mycobacterium chelonae,synergistic action
same,effectiveness relative to ciprofloxacin,Mycobacterium chelonae; p<0.001,more effective than ciprofloxacin
same,bacterial resistance,bacteria,low
same,bacterial resistance rates,[6],lower for gatifloxacin than for ciprofloxacin or norfloxacin
same,"effect of mutations, compared to ofloxacin, ciprofloxacin, sparfloxacin and trovafloxacin",[7],less affected
same,"cross-resistance with aminoglycosides, macrolides and tetracycline antibiotics",pathogenic agents,No cross-resistance has been observed
same,cross-resistance with some other fluoroquinolones,pathogenic agents; systemic gatifloxacin,Cross-resistance has been observed
same,plasma levels,[8],< 5 ng/mL
same,penetration in the eye structures compared to ciprofloxacin,[9],better penetration in the tissue
same,killing rate of etiological agents,bacterial conjunctivitis [10],92%
same,clinical cure rate,bacterial conjunctivitis [10]; culture-confirmed bacterial conjunctivitis,77%
same,rates of microbiological cure,bacterial conjunctivitis [11],83.3%
same,action against gram-positive cocci versus ciprofloxacin,bacterial keratitis; p<0.001,significantly superior
same,rate of complete ulcer healing versus ciprofloxacin,bacterial keratitis; patients with keratitis,significantly higher rate of complete ulcer healing
same,rate of bacterial reduction in the conjunctiva,"[12]; gatifloxacin 0.3% / levofloxacin 0.5% ophthalmic solutions, one week pre-operative",74.3%
same,post-operative infection (endophthalmitis),"[12]; one week pre-operative treatment, cataract surgery",None of the individuals treated develop a post-operative infection
same,sensitiveness of isolates,[13],95.8%
same,sensitivity of isolates,[14],All Streptococcus pneumoniae isolates were sensitive
same,sensitivity of isolates,[15],All gram-negative bacteria were also sensitive
same,"adverse events: frequency, type, intensity or relation to causes versus ofloxacin or placebo",[16],no statistically significant differences
